Test results taken from patent US6437157B1, “20-substituted steroids” (Hoechst Marion Roussel, priority 1994, dated 2002).

Experiments:
[1] = tested on: Sigma receptor; assay: Sigma receptor relative bond affinity (RBA), 3H PPP displacement, rat brain membranes; type: binding; settings: for Relative bond affinity (RBA) for the Sigma receptor, Brain (rat): 3 nM 3H PPP, haloperidol set equal to 100; for Displacement of 3H PPP from the Sigma receptor (in words): also evaluated on testicles
Description: (§1) The relative bond affinity was evaluated for preparations of rat brain and testicle membranes.
(§2) Male Sprague-Dawley rats originating from Iffa Credo and weighing approximately 200 g were used. The animals were scarified by decapitation and the brain and testicles were removed and homogenized in 10 to 25 volumes of 50 mM Tris-HCl buffer (pH 7.7) at 4° C. using an Ultrathurax. The homogenates were centrigued at 30,000 g for 15 minutes at 4° C. and the pellets were washed 3 times by resuspension in the same buffer and centrifugation under the same conditions. The membranes obtained in this way were stored at −80° C.
(§3) The marker of the sigma receptors used was ^3H PPP (propyl-3-(propyl-3-(3-hydroxyphenyl)-piperidine) of NEN having a specific activity of 3404 GBq/mmol. The membranes were suspended in the 50 mM Tris-HCl buffer, pH 8.0 to obtain a concentration of proteins of approximately 0.6 mg/ml for the testicles and 1 mg/ml for the brain. Aliquots of the homogenate were incubated for 90 minutes at 25° C. in a total volume of 0.5 ml with 3 nM of ^3H PPP in the presence of increasing concentrations of reference product (haloperidol) or of the products to be tested. At the end of the incubation, the 3H PPP bound to the membranes was separated from the free ^3H PPP by rapid filtration on Whatman GF/C filters pre-treated beforehand with 0.05% of polyethyleneimine. The precipitate was washed twice with 5 ml of Tris-HCl buffer and the radioactivity was counted after the addition of 20 ml of Aqualyte scintillating liquid (Baker).
(§4) The following two curves were drawn: percentage of bound tritiated marker 100×B/BO as a function of the logarithm of the concentration of unlabelled reference product or as a function of the logarithm of the concentration of unlabelled test product. The straight line of the following equation was determined:
(§5) BO=concentration of the bound tritiated marker in the absence of any unlabelled product.
B=concentration of the bound tritiated marker in the presence of a concentration X of unlabelled product.
Bmin=concentration of the bound tritiated marker in the presence of a large excess of the unlabelled reference product (5,000 nM).
The intersections of the straight line I50 and the curves allowed the evaluation of the concentrations of the unlabelled reference product (CH) and of the unlabelled test product (CX) which inhibited by 50% the specific binding of the tritiated marker on the receptor. The relative bond affinity (RBA) of the test product was determined by the equation:
The RBA of the haloperidol was arbitrarily set equal to 100.

[2] = tested on: Sigma receptor; assay: Sigma receptor relative bond affinity (RBA), 3H PPP displacement, rat testicle membranes; type: binding; settings: 3 nM 3H PPP, haloperidol set equal to 100
Description: as §1, §2, §3, §4, §5
B=concentration of the bound tritiated marker in the presence of a concentration X of unlabelled product. […]

[3] = tested on: human spermatozoids; assay: Measurement of intracellular calcium in human spermatozoids (Fura2-AM fluorescence); type: cell-based
Description: The human sperm originated from healthy donors. […] The mobile spermatozoids were incubated for a minimum of 2 hours in the BWW/HSA capacitating medium and were then incubated at a concentration of 5-10×10^6/ml with Fura2-AM to a final concentration 2 μM at 37° C. for 45 minutes. After washing by centrifugation at 600 g for 10 minutes in. BWW without HSA, the spermatozoids were suspended at a concentration of 4×10^6/ml. The florescence signal was measured at 37° C. using a spectrofluorimeter at excitation wave lengths of 340 and 380 nm (PTIM 2001-Kontron) or at 340, 360 and 380 nm (Hitachi F 2000—B. Braun Science Tec.). The fluorescence emission was recorded at 505 nm. The progesterone or the products to be tested, dissolved in absolute ethanol, were added to the incubation medium at a final concentration of 0.1% of ethanol. When an antagonistic effect of the progesterone was sought, the product was added to the medium 2 minutes before the progesterone. At the end of the each dosage, 5 μM of ionomycin were added to the sample to measure the maximum fluorescence signal. […] These values allowed the intracellular concentration of calcium ([Ca^2+]i) to be calculated by the method described by Grunkiewicz et al. 1985, J. Biol. Chem., Vol. 260, pp. 3440-3450).

Row | Structure (SMILES) | Relative bond affinity (RBA) for the Sigma receptor, Brain (rat) [1] | Relative bond affinity (RBA) for the Sigma receptor, Testicle (rat) [2] | Displacement of 3H PPP from the Sigma receptor (in words) [1] | [Ca2+]i relative to the basal level set equal to 1 ([3]; PROG. 10^-5M alone, Mean±SEM n=3) | [Ca2+]i relative to the basal level set equal to 1 ([3]; PROG. 10^-5M alone, Mean±SEM n=8) | Effect on the intracellular calcium of human spermatozoids (in words) ([3]; progesterone 10^-5 M alone) | [Ca2+]i relative to the basal level set equal to 1 ([3]; 2 minutes pre-treatment with U 10^-5M + PROG. 10^-5M, Mean±SEM n=3) | [Ca2+]i relative to the basal level set equal to 1 ([3]; 2 minutes pre-treatment with U 10^-6M + PROG. 10^-5M, Mean±SEM n=3) | [Ca2+]i relative to the basal level set equal to 1 ([3]; 2 minutes pre-treatment with U 10^-7M + PROG. 10^-5M, Mean±SEM n=3) | [Ca2+]i relative to the basal level set equal to 1 ([3]; 2 minutes pre-treatment with U 10^-8M + PROG. 10^-5M, Mean±SEM n=3) | [Ca2+]i relative to the basal level set equal to 1 ([3]; Pre-treatment 2 mn with U 10^-5M + PROG. 10^-5M, Mean±SEM n=8) | Antagonistic effect on the progesterone-induced [Ca2+]i increase (in words) ([3]; Product U 10^-5M added 2 minutes before the progesterone) | [Ca2+]i relative to the basal level set equal to 1 ([3]; U 10^-5M alone, Mean±SEM n=8)
1 | O=C(CCCN1CCC(O)(c2ccc(Cl)cc2)CC1)c1ccc(F)cc1 [Haloperidol] | 100.0 | 100.0 |  |  |  |  |  |  |  |  |  |  | 
2 | CC(=O)[C@H]1CC[C@H]2[C@@H]3CCC4=CC(=O)CC[C@]4(C)[C@H]3CC[C@]12C [Progesterone, reference compound] | 0.7 | 0.3 | capable of displacing ^3H PPP | 3.67 ± 0.97 | 5.76 ± 0.84 | induced a transitory increase of the [Ca^2+]i |  |  |  |  |  |  | 
3 | C[C@H](NCCN(C)C)[C@@H]1CC[C@@H]2[C@H]3CCc4cc(O)ccc4[C@@H]3CC[C@]21C [Example 1, (20S)(8α,9β,13α,14β,17α) 20-((dimethylamino)-ethyl)-amino-19-nor-Δ^1,3,5(10)-pregnatrien-3-ol] | 4.3 | 58.0 | capable of displacing ^3H PPP |  |  |  | 1.0 ± 0.0 | 2.63 ± 0.57 | 4.26 ± 1.93 | 3.33 ± 0.87 | 0.95 ± 0.05 | completely antagonized the effect of progesterone | 0.95 ± 0.05
